Key:
[1] = target: human Nav1.7 (Homo sapiens (Human), UniProt Q15858); test: FLIPR or FLIPR TETRA sodium dye assay with KCl and test article pre-incubation (sodium mobilization); format: cell-based; details: recombinant human Nav1.7 in HEK293; veratridine and scorpion venom as agonists
[2] = target: hNav1.7 (Homo sapiens (Human), UniProt Q15858); test: Electrophysiology (EP) assay, whole-cell patch clamp in hNav1.7 expressing HEK-293 cells; format: cell-based; details: hNav1.7 HEK-293 cells; affinity for the inactivated state of the channel; read-out: Nav1.7 Activity (μM) EP assay Ki
Chain of hNav1.7 (Q15858 other isoform, or with tags, fused parts or gaps): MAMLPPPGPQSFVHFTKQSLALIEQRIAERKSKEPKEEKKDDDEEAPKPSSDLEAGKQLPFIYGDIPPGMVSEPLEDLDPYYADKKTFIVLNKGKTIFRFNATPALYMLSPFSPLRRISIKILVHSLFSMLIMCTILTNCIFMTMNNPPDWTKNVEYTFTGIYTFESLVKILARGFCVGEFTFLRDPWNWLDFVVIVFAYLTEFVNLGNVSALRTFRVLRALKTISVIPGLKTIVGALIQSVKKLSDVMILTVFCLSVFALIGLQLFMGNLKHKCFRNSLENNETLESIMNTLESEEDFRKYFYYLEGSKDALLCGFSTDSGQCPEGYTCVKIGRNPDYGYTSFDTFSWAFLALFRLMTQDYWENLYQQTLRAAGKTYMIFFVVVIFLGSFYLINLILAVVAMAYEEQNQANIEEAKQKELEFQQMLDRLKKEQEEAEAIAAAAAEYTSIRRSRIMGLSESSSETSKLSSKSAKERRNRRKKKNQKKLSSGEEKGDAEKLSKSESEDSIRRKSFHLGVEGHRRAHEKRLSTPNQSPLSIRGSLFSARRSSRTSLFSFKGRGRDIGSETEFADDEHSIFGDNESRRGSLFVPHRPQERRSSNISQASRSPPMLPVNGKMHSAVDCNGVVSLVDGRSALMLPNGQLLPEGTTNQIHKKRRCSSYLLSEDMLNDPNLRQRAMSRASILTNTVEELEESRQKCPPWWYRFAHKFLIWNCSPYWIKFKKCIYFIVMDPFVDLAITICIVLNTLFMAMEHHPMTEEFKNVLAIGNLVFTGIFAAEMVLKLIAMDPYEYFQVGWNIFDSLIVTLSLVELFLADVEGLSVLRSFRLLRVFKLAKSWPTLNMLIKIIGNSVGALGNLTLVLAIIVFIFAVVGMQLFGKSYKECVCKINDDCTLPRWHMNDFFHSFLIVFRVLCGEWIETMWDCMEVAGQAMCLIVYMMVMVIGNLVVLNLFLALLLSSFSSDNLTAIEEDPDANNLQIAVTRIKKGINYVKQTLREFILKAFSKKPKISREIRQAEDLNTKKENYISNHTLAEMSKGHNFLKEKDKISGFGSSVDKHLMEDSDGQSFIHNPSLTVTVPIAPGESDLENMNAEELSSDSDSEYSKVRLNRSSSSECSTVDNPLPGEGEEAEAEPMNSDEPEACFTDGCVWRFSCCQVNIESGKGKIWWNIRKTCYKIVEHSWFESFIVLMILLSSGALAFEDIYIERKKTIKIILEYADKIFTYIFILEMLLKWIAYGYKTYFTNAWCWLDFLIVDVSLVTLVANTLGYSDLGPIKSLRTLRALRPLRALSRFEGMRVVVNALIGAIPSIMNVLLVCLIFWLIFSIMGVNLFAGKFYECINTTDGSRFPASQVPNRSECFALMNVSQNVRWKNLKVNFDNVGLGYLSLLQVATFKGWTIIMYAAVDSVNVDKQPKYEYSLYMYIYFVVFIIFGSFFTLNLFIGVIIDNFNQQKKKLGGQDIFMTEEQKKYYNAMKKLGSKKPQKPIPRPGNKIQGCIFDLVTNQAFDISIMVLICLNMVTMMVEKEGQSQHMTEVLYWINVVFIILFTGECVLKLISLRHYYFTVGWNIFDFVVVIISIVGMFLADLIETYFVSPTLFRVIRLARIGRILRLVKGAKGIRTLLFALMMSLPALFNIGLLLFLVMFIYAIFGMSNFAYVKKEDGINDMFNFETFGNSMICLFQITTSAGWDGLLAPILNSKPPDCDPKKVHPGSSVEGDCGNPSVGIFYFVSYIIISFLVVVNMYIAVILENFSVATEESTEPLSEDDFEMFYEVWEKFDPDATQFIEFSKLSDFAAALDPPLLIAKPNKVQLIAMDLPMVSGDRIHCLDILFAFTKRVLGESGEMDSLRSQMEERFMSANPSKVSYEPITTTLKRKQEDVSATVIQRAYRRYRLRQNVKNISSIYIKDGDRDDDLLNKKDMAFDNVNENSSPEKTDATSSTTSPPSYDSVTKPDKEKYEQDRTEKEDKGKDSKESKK

Chain of human Nav1.7 (Q15858 with tags, fused parts or gaps limits assumed): as the sequence (Q15858 other isoform, or with tags, fused parts or gaps) above

Row | Structure (SMILES) | IC50 [1] [µM] | Ki [2] [µM]
1 | C[C@H](Nc1cc(C(N)=O)nc(N2CCc3c(cccc3-c3ccc(C(F)(F)F)cc3)C2)n1)C(N)=O [Compound 22, (S)-6-((1-amino-1-oxopropan-2-yl)amino)-2-(5-(4-(trifluoromethyl)phenyl)-3,4-dihydroisoquinolin-2(1H)-yl)pyrimidine-4-carboxamide] | 0.428 ± 0.069 | 0.317 ± 0.079
2 | C[C@H](Nc1cc(C(N)=O)nc(N2CCc3c(cccc3-c3ccc(C(F)(F)F)cn3)C2)n1)C(N)=O [Compound 23, (S)-6-((1-amino-1-oxopropan-2-yl)amino)-2-(5-(5-(trifluoromethyl)-pyridin-2-yl)-3,4-dihydroisoquinolin-2(1H)-yl)pyrimidine-4-carboxamide] | > 20 | –
3 | C[C@H](Nc1cc(C(N)=O)nc(N2CCc3c(cccc3-c3ccccc3C(F)(F)F)C2)n1)C(N)=O [Compound 24, (S)-6-((1-amino-1-oxopropan-2-yl)amino)-2-(5-(2-(trifluoromethyl)-phenyl)-3,4-dihydroisoquinolin-2(1H)-yl)pyrimidine-4-carboxamide] | 2.35 ± 0.125 | –
4 | NC(=O)c1cccc(N2CCc3c(cccc3-c3ccc(C(F)(F)F)cc3)C2)n1 [Compound 25, 6-(5-(4-(trifluoromethyl)phenyl)-3,4-dihydroisoquinolin-2(1H)-yl)picolinamide] | 0.987 ± 0.072 | –
5 | NC(=O)[C@@H](O)[C@H](O)c1cccc(N2CCc3c(cccc3-c3ccc(C(F)(F)F)cc3)C2)n1 [Compound 26, (2S,3R)-2,3-dihydroxy-3-(6-(5-(4-(trifluoromethyl)phenyl)-3,4-dihydroisoquinolin-2(1H)-yl)pyridin-2-yl)propanamide] | 0.251 ± 0.017 | 0.051 ± 0.014
6 | C[C@H](Nc1cc(C(N)=O)nc(N2CCc3c(cccc3-c3cccc(C(F)(F)F)c3)C2)n1)C(N)=O [Compound 27, (S)-6-((1-amino-1-oxopropan-2-yl)amino)-2-(5-(3-(trifluoromethyl)phenyl)-3,4-dihydroisoquinolin-2(1H)-yl)pyrimidine-4-carboxamide] | 1.52 ± 0.122 | 0.24 ± 0.041
7 | C[C@H](Nc1cc(C(N)=O)nc(N2CCc3c(cccc3C3=CCCCC3)C2)n1)C(N)=O [Compound 28, (S)-6-((1-amino-1-oxopropan-2-yl)amino)-2-(5-(cyclohex-1-en-1-yl)-3,4-dihydroisoquinolin-2(1H)-yl)pyrimidine-4-carboxamide] | 2.84 ± 0.112 | –
8 | O=S(=O)(Nc1ncns1)c1cccc(N2CCc3c(cccc3-c3ccc(C(F)(F)F)cc3)C2)n1 [Compound 29, N-(1,2,4-thiadiazol-5-yl)-6-(5-(4-(trifluoromethyl)phenyl)-3,4-dihydroisoquinolin-2(1H)-yl)pyridine-2-sulfonamide] | 0.291 ± 0.019 | 0.535 ± 0.145
9 | C[C@H](Nc1cc(C(N)=O)nc(N2CCc3c(cccc3C3CCCCC3)C2)n1)C(N)=O [Compound 31, (S)-6-((1-amino-1-oxopropan-2-yl)amino)-2-(5-cyclohexyl-3,4-dihydroisoquinolin-2(1H)-yl)pyrimidine-4-carboxamide] | 2.2 ± 0.898 | –
10 | NC(=O)c1cc(N2CCc3c(cccc3-c3ccc(C(F)(F)F)cc3)C2)cc([C@H](O)CO)n1 [Compound 35, (S)-6-(1,2-dihydroxyethyl)-4-(5-(4-(trifluoromethyl)phenyl)-3,4-dihydroisoquinolin-2(1H)-yl)picolinamide] | 0.502 ± 0.031 | 0.232 ± 0.065
11 | NC(=O)c1cc(N2CCc3c(cccc3-c3ccc(C(F)(F)F)cc3)C2)cc([C@@H](O)CO)n1 [Compound 36, (R)-6-(1,2-dihydroxyethyl)-4-(5-(4-(trifluoromethyl)phenyl)-3,4-dihydro-isoquinolin-2(1H)-yl)picolinamide] | 1.54 ± 0.229 | 0.257 ± 0.046

— patent US10738026B2, “Isoquinoline derivatives and use thereof” (Purdue Pharma L.P., priority 2014, dated 2020)
